As a reminder, the IC50 is the concentration that gives 50% inhibition.

The assay deals with T1, Human PTP1B (1-321) (Homo sapiens, UniProt P18031).
T1 construct: Human PTP1B (1-321) was cloned from a human cDNA library; made in house; host or cells: E. coli
T1 sequence (P18031 1-321): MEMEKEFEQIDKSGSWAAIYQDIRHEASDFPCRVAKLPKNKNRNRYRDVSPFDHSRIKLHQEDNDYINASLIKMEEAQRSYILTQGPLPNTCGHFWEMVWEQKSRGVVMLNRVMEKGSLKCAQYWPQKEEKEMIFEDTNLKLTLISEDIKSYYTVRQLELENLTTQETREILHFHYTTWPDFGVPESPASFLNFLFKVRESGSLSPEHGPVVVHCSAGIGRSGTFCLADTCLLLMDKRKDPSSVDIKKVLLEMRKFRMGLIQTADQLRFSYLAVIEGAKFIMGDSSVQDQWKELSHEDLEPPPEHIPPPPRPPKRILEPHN
Put plainly: In vitro inhibition of PTP1B (PTPase assay, Malachite Green / DiFMUP). It counts as biochemical. The conditions noted are these: read-out: IC50 (μM), PTP1B inhibitory activity. The protocol:
Human PTP1B (1-321) was cloned from a human cDNA library using conventional molecular biology techniques. The cDNA sequence was identical to the published human PTP1B sequence (Accession number M33689). The protein was expressed and purified from E. coli as described by Barford D. et.al, J. Mol Biol (1994) 239,726-730).
The measurement of PTPase activity was carried out using one of two methods:
The first method for the measurement of PTP1B inhibitory activity a tyrosine phosphorylated peptide based on the amino acid sequence of insulin receptor tyrosine autophosphorylation site 1146 (TRDI(pY)E) was used as substrate. The reaction conditions were as follows:
PTP1B (0.5-2nM ) was incubated with compound for 15 min in buffer containing 37.5 mM Bis-Tris buffer pH 6.2, 140 mMNaCl, 0.05% BSA and 2 mM DTT. The reaction was started by the addition of 50 μM substrate. After 20 min at room temperature (22-25° C.) the reaction was stopped with KOH and the amount of free phosphate measured using Malachite Green as previously described. (Harder et al. 1994 Biochem J. 298; 395).
The second method was used for the measurement of general PTPase inhibitory activity across a panel of PTPases the substrate (6,8-difluoro-4-methylumbelliferyl phosphate (DiFMUP; from Molecular Probes) was used at the Km for each enzyme. The buffer conditions were identical as in the Malachite Green assay. The reaction was stopped with KOH. In this case the dephosphoryated product becomes fluorescent and the fluorescence read. (Excitiation: […]/Emmission: 460 nM).
`Nc1nc(N)c2c(cc(-c3ccc(Cl)s3)c3[nH]ccc32)n1` [Example 6, 6-(5-Chloro-thiophen-2-yl)-7H-pyrrolo[3,2-f]quinazoline-1,3-diamine]: the IC50 is 29.2 µM.
As to `CCOc1cccc(-c2cc3nc(N)nc(N)c3c3cc[nH]c23)c1` [Example 2, 6-(3-Ethoxy-phenyl)-7H-pyrrolo[3,2-f]quinazoline-1,3-diamine], the IC50 came out at 23.8 µM.
In the case of `Nc1nc(N)c2c(cc(-c3cccc([N+](=O)[O-])c3)c3[nH]ccc32)n1` [Example 4, 6-(3-Nitro-phenyl)-7H-pyrrolo[3,2-f]quinazoline-1,3-diamine], the IC50 was 89.5 µM.
With `Nc1cccc(-c2cc3nc(N)nc(N)c3c3cc[nH]c23)c1` [Example 8, 6-(3-Amino-phenyl)-7H-pyrrolo[3,2-f]quinazoline-1,3-diamine] the figure was 24.1 µM.
